{"source": "ChEMBL document CHEMBL1132895", "about": "“Immunomodulatory activity of hexapeptides related to proline rich peptide from colostrum” (2000)", "format_in_all_cases": "functional", "key": {"Mus musculus [1]": {"organism": "Mus musculus", "test": "Compound (0.10 ug/mL) was tested for their immunomodulatory activity in vitro using lymphocyte transformation test"}, "Mus musculus [2]": {"organism": "Mus musculus", "test": "Compound (0.10 ug/mL) was tested for their immunomodulatory activity in vitro using mixed lymphocyte reaction"}, "Mus musculus [3]": {"organism": "Mus musculus", "test": "Compound (1.0 ug/mL) was tested for their immunomodulatory activity in vitro using lymphocyte transformation test"}, "Mus musculus [4]": {"organism": "Mus musculus", "test": "Compound (1.0 ug/mL) was tested for their immunomodulatory activity in vitro using mixed lymphocyte reaction"}, "Mus musculus [5]": {"organism": "Mus musculus", "test": "Compound (10 ug/mL) was tested for their immunomodulatory activity in vitro using lymphocyte transformation test"}, "Mus musculus [6]": {"organism": "Mus musculus", "test": "Compound (10 ug/mL) was tested for their immunomodulatory activity in vitro using mixed lymphocyte reaction"}, "Mus musculus [7]": {"organism": "Mus musculus", "test": "Compound (0.01 ug/mL) was tested for their immunomodulatory activity in vitro using lymphocyte transformation test"}, "Mus musculus [8]": {"organism": "Mus musculus", "test": "Compound (0.01 ug/mL) was tested for their immunomodulatory activity in vitro using mixed lymphocyte reaction"}}, "note": "Non-standard residues stand in square brackets, D forms with d. Residues, ends and D or L forms follow the SMILES beside them. Nva = CCC[C@H](N)C(=O)O; Sar = CNCC(=O)O"}
{"molecule": "CC(C)[C@H](NC(=O)[C@@H](N)Cc1ccc(O)cc1)C(=O)N1CCC[C@H]1C(=O)NCC(=O)N[C@@H](Cc1ccccc1)C(=O)N1CCC[C@H]1C(=O)O", "values": [{"measurement": "Stimulation index", "setting": "Mus musculus [1]", "result": 1.05}, {"measurement": "Stimulation index", "setting": "Mus musculus [2]", "result": 0.79}, {"measurement": "Stimulation index", "setting": "Mus musculus [3]", "result": 1.02}, {"measurement": "Stimulation index", "setting": "Mus musculus [4]", "result": 0.85}, {"measurement": "Stimulation index", "setting": "Mus musculus [5]", "result": 0.75}, {"measurement": "Stimulation index", "setting": "Mus musculus [6]", "result": 1}, {"measurement": "Stimulation index", "setting": "Mus musculus [7]", "result": 1.13}, {"measurement": "Stimulation index", "setting": "Mus musculus [8]", "result": 0.72}]}
{"molecule": "CC(C)[C@H](NC(=O)[C@@H](N)Cc1ccc(O)cc1)C(=O)N1CCC[C@H]1C(=O)NCC(=O)N[C@@H](Cc1ccccc1)C(=O)N(C)CC(=O)O", "note": "(H-YVPGF[Sar]-OH)", "values": [{"measurement": "Stimulation index", "setting": "Mus musculus [1]", "result": 0.61}, {"measurement": "Stimulation index", "setting": "Mus musculus [2]", "result": 0.8}, {"measurement": "Stimulation index", "setting": "Mus musculus [3]", "result": 1.9}, {"measurement": "Stimulation index", "setting": "Mus musculus [4]", "result": 0.72}, {"measurement": "Stimulation index", "setting": "Mus musculus [5]", "result": 1.6}, {"measurement": "Stimulation index", "setting": "Mus musculus [6]", "result": 0.92}, {"measurement": "Stimulation index", "setting": "Mus musculus [7]", "result": 0.83}, {"measurement": "Stimulation index", "setting": "Mus musculus [8]", "result": 0.71}]}
{"molecule": "CC(C)C[C@H](NC(=O)[C@@H]1CCCN1C(=O)[C@@H](NC(=O)[C@@H](N)Cc1ccc(O)cc1)C(C)C)C(=O)N[C@@H](Cc1ccccc1)C(=O)N(C)CC(=O)O", "note": "(H-YVPLF[Sar]-OH)", "values": [{"measurement": "Stimulation index", "setting": "Mus musculus [1]", "result": 0.86}, {"measurement": "Stimulation index", "setting": "Mus musculus [3]", "result": 1.21}, {"measurement": "Stimulation index", "setting": "Mus musculus [5]", "result": 1.2}, {"measurement": "Stimulation index", "setting": "Mus musculus [7]", "result": 0.9}]}
{"molecule": "CC(C)[C@H](NC(=O)[C@@H](N)Cc1ccc(O)cc1)C(=O)N1CCC[C@H]1C(=O)N(C)CC(=O)N[C@@H](Cc1ccccc1)C(=O)N1CCC[C@H]1C(=O)O", "note": "(H-YVP[Sar]FP-OH)", "values": [{"measurement": "Stimulation index", "setting": "Mus musculus [1]", "result": 1.21}, {"measurement": "Stimulation index", "setting": "Mus musculus [3]", "result": 1.37}, {"measurement": "Stimulation index", "setting": "Mus musculus [5]", "result": 0.96}, {"measurement": "Stimulation index", "setting": "Mus musculus [7]", "result": 1.41}]}
{"molecule": "CCC[C@H](NC(=O)[C@@H](N)Cc1ccc(O)cc1)C(=O)N1CCC[C@H]1C(=O)NCC(=O)N[C@@H](Cc1ccccc1)C(=O)N1CCC[C@H]1C(=O)O", "note": "(H-Y[Nva]PGFP-OH)", "values": [{"measurement": "Stimulation index", "setting": "Mus musculus [1]", "result": 1.06}, {"measurement": "Stimulation index", "setting": "Mus musculus [3]", "result": 1.15}, {"measurement": "Stimulation index", "setting": "Mus musculus [5]", "result": 0.73}, {"measurement": "Stimulation index", "setting": "Mus musculus [7]", "result": 0.86}]}
{"molecule": "CC(C)C[C@H](NC(=O)CN(C)C(=O)[C@@H](NC(=O)[C@@H](N)Cc1ccc(O)cc1)C(C)C)C(=O)N[C@@H](Cc1ccccc1)C(=O)N1CCCC1C(=O)O", "note": "(single isomer, unassigned)", "values": [{"measurement": "Stimulation index", "setting": "Mus musculus [1]", "result": 0.97}, {"measurement": "Stimulation index", "setting": "Mus musculus [3]", "result": 1.24}, {"measurement": "Stimulation index", "setting": "Mus musculus [5]", "result": 1.12}, {"measurement": "Stimulation index", "setting": "Mus musculus [7]", "result": 0.88}]}
{"molecule": "C[C@]12C=CC(=O)C=C1CCC1[C@@H]2[C@@H](O)C[C@@]2(C)[C@H]1CC[C@]2(O)C(=O)CO", "note": "(single isomer, unassigned) [PREDNISOLONE]", "values": [{"measurement": "Stimulation index", "setting": "Mus musculus [2]", "result": 0.3}]}
{"molecule": "CC(C)C[C@H](NC(=O)C1CCCN1C(=O)[C@@H](NC(=O)C(N)Cc1ccc(O)cc1)C(C)C)C(=O)N[C@@H](Cc1ccccc1)C(=O)N1CCCC1C(=O)O", "note": "(single isomer, unassigned; form 1)", "values": [{"measurement": "Stimulation index", "setting": "Mus musculus [1]", "result": 1.08}, {"measurement": "Stimulation index", "setting": "Mus musculus [3]", "result": 0.88}, {"measurement": "Stimulation index", "setting": "Mus musculus [5]", "result": 0.82}, {"measurement": "Stimulation index", "setting": "Mus musculus [7]", "result": 1.1}]}
{"molecule": "CC(C)[C@H](NC(=O)[C@@H](N)Cc1ccc(O)cc1)C(=O)N1CCCC1C(=O)NCC(=O)NC(Cc1ccccc1)C(=O)N1CCCC1C(=O)O", "note": "(single isomer, unassigned; form 1)", "values": [{"measurement": "Stimulation index", "setting": "Mus musculus [1]", "result": 1.02}, {"measurement": "Stimulation index", "setting": "Mus musculus [3]", "result": 0.96}, {"measurement": "Stimulation index", "setting": "Mus musculus [5]", "result": 1.05}, {"measurement": "Stimulation index", "setting": "Mus musculus [7]", "result": 0.89}]}
{"molecule": "CC(C)C[C@H](NC(=O)C1CCCN1C(=O)[C@@H](NC(=O)C(N)Cc1ccc(O)cc1)C(C)C)C(=O)N[C@@H](Cc1ccccc1)C(=O)N1CCCC1C(=O)O", "note": "(single isomer, unassigned; form 2)", "values": [{"measurement": "Stimulation index", "setting": "Mus musculus [1]", "result": 0.86}, {"measurement": "Stimulation index", "setting": "Mus musculus [3]", "result": 1.27}, {"measurement": "Stimulation index", "setting": "Mus musculus [5]", "result": 0.95}, {"measurement": "Stimulation index", "setting": "Mus musculus [7]", "result": 0.78}]}
{"molecule": "CC(C)[C@H](NC(=O)[C@@H](N)Cc1ccc(O)cc1)C(=O)N1CCCC1C(=O)NCC(=O)NC(Cc1ccccc1)C(=O)N1CCCC1C(=O)O", "note": "(single isomer, unassigned; form 2)", "values": [{"measurement": "Stimulation index", "setting": "Mus musculus [1]", "result": 1.29}, {"measurement": "Stimulation index", "setting": "Mus musculus [2]", "result": 0.9}, {"measurement": "Stimulation index", "setting": "Mus musculus [3]", "result": 1.17}, {"measurement": "Stimulation index", "setting": "Mus musculus [4]", "result": 1.31}, {"measurement": "Stimulation index", "setting": "Mus musculus [5]", "result": 1.4}, {"measurement": "Stimulation index", "setting": "Mus musculus [6]", "result": 1}, {"measurement": "Stimulation index", "setting": "Mus musculus [7]", "result": 0.97}, {"measurement": "Stimulation index", "setting": "Mus musculus [8]", "result": 0.96}]}
{"molecule": "H-YLPGFP-OH", "values": [{"measurement": "Stimulation index", "setting": "Mus musculus [1]", "result": 0.64}, {"measurement": "Stimulation index", "setting": "Mus musculus [2]", "result": 0.5}, {"measurement": "Stimulation index", "setting": "Mus musculus [3]", "result": 0.62}, {"measurement": "Stimulation index", "setting": "Mus musculus [4]", "result": 1.2}, {"measurement": "Stimulation index", "setting": "Mus musculus [5]", "result": 0.59}, {"measurement": "Stimulation index", "setting": "Mus musculus [6]", "result": 1.24}, {"measurement": "Stimulation index", "setting": "Mus musculus [7]", "result": 0.75}, {"measurement": "Stimulation index", "setting": "Mus musculus [8]", "result": 0.63}]}
{"molecule": "H-YVPGFP-NH2", "values": [{"measurement": "Stimulation index", "setting": "Mus musculus [1]", "result": 0.85}, {"measurement": "Stimulation index", "setting": "Mus musculus [3]", "result": 1.1}, {"measurement": "Stimulation index", "setting": "Mus musculus [5]", "result": 0.84}, {"measurement": "Stimulation index", "setting": "Mus musculus [7]", "result": 0.83}]}
